Experimental data: US8986696B2, “Trans-capsular administration of p38 map kinase inhibitors into orthopedic joints” (DePuy Mitek, Inc., priority 2007, dated 2015)
pIC50: −log10 of the molar value.

How the values were obtained:
[1] = test system: injured cartilage explants, NO production; experiment: drop tower design model: NO production; assay type: cell-based, bovine; details: cocktail of cytokines
Source text: The device comprises a vertical rail that guides a sliding weight from 0.1 kg to 3 kg directly onto a force transducer which is situated at the bottom of the device. A sphere-shaped 2 mm indenter resting on a specimen is located at the bottom of the vertical rail. The indenter is held by a stop screw. The specimen is rigidly attached to a tissue holder underneath the indenter, to avoid side movements, the specimen is rigidly attached to the tissue holder. In this manner, the force transducer transduces a force indirectly onto the specimen. Adjusting the weight of a mass and height from which the mass drops varies the magnitude of the intended impact. […]
In the first method, bovine or human PBMCs were freshly prepared using Ficoll gradient by Lampire Biological Laboratories, Inc. PBMCs in RPMI w/10% FCS at delivery were spun down at 1500 rpm for twenty minutes and the cell pellet was washed twice with 1×PBS to wash off the residual Ficoll. […] Each conditioned medium was assessed for levels of pro-inflammatory cytokines to ensure their secretion from PBMC. […]
Nitrate/Nitrite was measured using the Griess reaction (Green L. C. et al., “Analysis of Nitrate, Nitrite, and [15N]nitrate in Biological Fluids,” Anal. Biochem. 126: 131-138 (1982)) with a Nitrate/Nitrite Colorimetric Assay Kit (Cayman Chemicals), as described in Example III above.

[2] = test system: rabbit anterior cruciate ligament transection (ACLT) model of osteoarthritis; experiment: ACLT model, p38 MAP kinase inhibitors (Example VII); assay type: in vivo; set-up: key to Clinical Scoring - Total Score, Mean / Clinical Scoring - Trochlear Groove Effects, Mean / Clinical Scoring - All Tibial Plateau Effects, Mean / Clinical Scoring - All Cartilage Effects, Mean / Clinical Scoring - All Condylar Effects, Mean: gross joint damage score; higher = more damage; details: for All Condylar Effects: at the low dose; for Total Score / All Cartilage Effects: both doses; for All Cartilage Effects: compared to the non-injected control group; for lateral femoral condyle surface erosion: high and low dose
Method: New Zealand white rabbits (male, six to eight pounds) were anesthetized with ketamine (17 mg/kg) and xylazine (2.5 mg/kg). Supplementation was given during surgery, if needed, with an additional intramuscular injection of ketamine (35 mg/kg) and xylazine (5 mg/kg). The animals were given buprenorphine (0.01-0.05 mg/kg) for analgesia via a subcutaneous injection. The buprenorphine was administered every twelve hours for seventy-two hours. After induction of anesthesia, the right leg was clipped free of hair using electric animal clippers. The area around the site of surgery was scrubbed with chlorhexidine diacetate, rinsed with alcohol, dried, and painted with an aqueous iodophor solution of 1% available iodine and surgery was prepared using aseptic technique. In the right limb of each animal, the anterior cruciate ligament (ACL) was transected. A medial parapatellar incision was made and the patella was dislocated. The knee was flexed and the ACL visualized. A scalpel blade was positioned behind the ACL and brought anteriorly, thereby cutting the ACL while protecting the posterior cruciate ligament. The patella was returned to the normal anatomic position. The wound was closed in layers.
Following surgery, the animals were left untreated for six weeks. After six weeks, a series of five injections of the test compound were injected intra-articularly once weekly.
The animals were euthanized six weeks after initiation with an intravenous injection of pentobarbital (60 mg/kg). […] Immediately following euthanasia, gross observations of the knee joints were made and any abnormality was recorded. The joints were analyzed for disease state in the trochlear groove, the femoral condyles and the tibial plateau. Pathological assessments were performed on the sectioned tissue. Condylar structure, cellularity, presence of GAG and presence of cartilage were evaluated.
Sterile formulations of the test compounds were prepared by gamma irradiating (15 kGy) them on dry ice. […] All formulations were prepared in an aseptic manner by dispersing the drug into ARTHREASE®. […] The drug was delivered in a volume of 160 μL at a concentration of […]. The low dose was made by diluting with ARTHREASE® to the final concentration.
Ninety-six (96) rabbits underwent ACLT on the right knee (n=ten per group) according to the ACLT model. Anesthesia, analgesia, surgical preparation, surgery, intra-articular injections, and euthanasia were conducted according to the ACLT model.
At the time of sacrifice, the following parameters were evaluated grossly (the scale follows in parenthesis):
Each parameter was given a score. The combination of all parameters gave a Total Score. A higher score indicates more damage to the joint. […] Individual results for each parameter assessed were tabulated. Data for the individual scores is not shown.

[3] = target: COX2 (Homo sapiens, UniProt P35354); experiment: COX2 inhibition; assay type: biochemical
[4] = test system: LPS-induced TNF human peripheral blood mononuclear cells (hPBMC); experiment: LPS-induced TNF in hPBMC; assay type: cell-based
[5] = target: p38α MAP kinase (Homo sapiens, UniProt Q16539); experiment: p38α MAP kinase enzyme inhibition; assay type: biochemical
p38α MAP kinase, sequence (Q16539 whole entry): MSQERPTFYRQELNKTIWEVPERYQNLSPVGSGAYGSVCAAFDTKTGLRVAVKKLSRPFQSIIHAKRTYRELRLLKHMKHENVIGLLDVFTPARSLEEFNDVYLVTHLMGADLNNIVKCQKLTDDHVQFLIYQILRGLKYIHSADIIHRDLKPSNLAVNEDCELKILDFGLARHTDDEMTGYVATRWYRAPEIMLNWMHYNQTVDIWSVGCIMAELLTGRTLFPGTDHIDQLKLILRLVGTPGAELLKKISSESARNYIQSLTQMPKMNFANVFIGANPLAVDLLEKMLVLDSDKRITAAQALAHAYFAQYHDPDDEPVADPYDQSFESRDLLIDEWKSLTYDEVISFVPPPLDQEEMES

COX2, sequence (P35354 18-604): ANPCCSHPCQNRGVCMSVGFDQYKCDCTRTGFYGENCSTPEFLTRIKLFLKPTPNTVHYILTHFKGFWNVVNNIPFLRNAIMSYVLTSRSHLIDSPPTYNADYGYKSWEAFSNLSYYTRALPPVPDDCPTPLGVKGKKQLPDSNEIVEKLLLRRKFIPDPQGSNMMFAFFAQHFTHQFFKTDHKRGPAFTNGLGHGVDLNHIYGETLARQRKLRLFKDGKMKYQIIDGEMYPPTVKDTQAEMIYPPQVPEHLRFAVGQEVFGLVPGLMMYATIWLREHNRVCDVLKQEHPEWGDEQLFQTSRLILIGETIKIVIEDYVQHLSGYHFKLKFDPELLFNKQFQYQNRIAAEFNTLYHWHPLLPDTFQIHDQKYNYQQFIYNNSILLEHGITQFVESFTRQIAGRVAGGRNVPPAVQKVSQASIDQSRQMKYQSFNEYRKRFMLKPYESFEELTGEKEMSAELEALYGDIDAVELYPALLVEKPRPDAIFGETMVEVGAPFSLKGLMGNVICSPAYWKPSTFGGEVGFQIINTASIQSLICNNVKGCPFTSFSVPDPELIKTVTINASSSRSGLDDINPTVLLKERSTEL

Row | Structure (SMILES) | NO production, inhibition [1] | All Condylar Effects [2] | Total Score [2] | All Cartilage Effects [2] | lateral femoral condyle surface erosion [2] | Clinical Scoring - All Cartilage Effects, Mean ([2]; high dose) | Clinical Scoring - All Condylar Effects, Mean ([2]; high dose) | Clinical Scoring - All Tibial Plateau Effects, Mean ([2]; high dose) | Clinical Scoring - Total Score, Mean ([2]; high dose) | Clinical Scoring - Trochlear Groove Effects, Mean ([2]; high dose) | Clinical Scoring - All Cartilage Effects, Mean ([2]; low dose) | Clinical Scoring - All Condylar Effects, Mean ([2]; low dose) | Clinical Scoring - All Tibial Plateau Effects, Mean ([2]; low dose) | Clinical Scoring - Total Score, Mean ([2]; low dose) | Clinical Scoring - Trochlear Groove Effects, Mean ([2]; low dose) | pIC50 [3] | pIC50 [4] | pIC50 [5]
1 | OCCC#Cc1nc(-c2ccc(F)cc2)c(-c2ccncc2)n1CCCc1ccccc1 [JNJ 3026582 (RWJ 67657), 4-[4-(4-fluorophenyl)-1-(3-phenylpropyl)-5-(4-pyridinyl)-1H-imidazol-2-yl]-3-butyn-1-ol] | dose-dependently inhibited | no effect | Neither JNJ 3026582 (RWJ 67657) nor SCIO-282 (SD 282) had an effect | no efficacy | no effect | 9.75 | 6.25 | 2.25 | 16.58 | 7.92 | 7.58 | 4.71 | 1.63 | 14.17 | 7.75 |  |  | 
2 | CC(=O)N1CCN(c2c(-c3ccncc3)c(-c3ccc(F)cc3)c(C#N)n2C)CC1 [JNJ 17089540 (RWJ 669307)] |  | decrease in overall clinical score | trended downward | reduction in scores | efficacious in reducing the clinical score | 6.21 | 3.75 | 2.38 | 12.46 | 6.25 | 5 | 2.68 | 1.95 | 10.41 | 5.55 | < 5.00 | 6.66 | 5.70
